Assay in all cases: relative viability (nuclei count vs DMSO), 5 days (fraction); higher = more cells survive
Compound in experiment [1]: C1=CC2=C(C=C(C(=C2N=C1)O)N=NC3=CC4=C(C=C3)C=C(C=C4)S(=O)(=O)O)S(=O)(=O)O
The essentials:
(§1)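 Only plates meeting two conditions passed: control CV below 25% and at least one doubling. Lung cancer cell lines, kept overnight at 37 °C in 1536-well plates, were pinned with five library-drug doses (not always all listed) √10 apart on vehicle-anchored plates and grown 5 days without medium change. A one-step fix, permeabilisation and Hoechst stain preceded 4× imaging and MetaXpress nuclear counting. Viability equals treated-well nuclei divided by vehicle-well nuclei, as the median over plates.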

Compound in the next experiment: O=C(NC1CCNCC1)c1n[nH]cc1NC(=O)c1c(Cl)cccc1Cl [AT-7519]
The essentials:
as §1

Compound in experiment [2]: C1=CC2=C(C=C(C(=C2N=C1)O)N=NC3=CC4=C(C=C3)C=C(C=C4)S(=O)(=O)O)S(=O)(=O)O + CC(=O)Nc1cccc(-n2c(=O)n(C3CC3)c(=O)c3c(Nc4ccc(I)cc4F)n(C)c(=O)c(C)c32)c1 [Trametinib] (partner 0.02 µM)
The gist of the method:
(§2)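 Dosing by pin tool came one day after lung cancer cell lines were seeded in 1536-well plates, using either one drug or a fixed anchor-drug dose plus five library-drug doses (not always all listed) in √10 steps. After 5 days, nuclei were counted on 4× images. Relative viability is treated-well nuclei count divided by vehicle-well nuclei count, and values are medians of duplicate plates.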

Compound in the experiment “AT-7519 + Navitoclax”: O=C(NC1CCNCC1)c1n[nH]cc1NC(=O)c1c(Cl)cccc1Cl [AT-7519] + CC1(C)CCC(c2ccc(Cl)cc2)=C(CN2CCN(c3ccc(C(=O)NS(=O)(=O)c4ccc(N[C@H](CCN5CCOCC5)CSc5ccccc5)c(S(=O)(=O)C(F)(F)F)c4)cc3)CC2)C1 [Navitoclax] (partner 0.5 µM)
The gist of the method:
as §2

As for HARA, the relative viability in experiment [1] (0.08 µM) was 1.03; in experiment [1] (0.253 µM) it was 0.871; in experiment [1] (0.8 µM), 0.995; in experiment [1] (2.53 µM) it was 0.953; in experiment [1] (8 µM), 0.806; with AT-7519 (0.01 µM), 0.86. Besides, the relative viability is 0.897 with AT-7519 (0.03162 µM); 1.07 with AT-7519 (0.3162 µM); 0.892 with AT-7519 (1 µM); 0.878 in experiment [2] (first compound 0.08 µM); 0.442 in experiment [2] (first compound 0.253 µM); 0.869 in experiment [2] (first compound 0.8 µM). Further, the relative viability in experiment [2] (first compound 2.53 µM) amounted to 0.82; in experiment [2] (first compound 8 µM) it was 0.532; in the experiment with AT-7519 + Navitoclax (first compound 0.01 µM) it was 1.07; with AT-7519 + Navitoclax (first compound 0.03162 µM), 1.12; with AT-7519 + Navitoclax (first compound 0.3162 µM) it was 1.12; in the experiment with AT-7519 + Navitoclax (first compound 1 µM), 0.97.
As for NCI-H596, the relative viability turned out to be 1.06 in experiment [1] (0.08 µM); 0.987 in experiment [1] (0.253 µM); 0.982 in experiment [1] (0.8 µM); 1.03 in experiment [1] (2.53 µM); 1.01 in experiment [1] (8 µM); 0.928 in the experiment with AT-7519 (0.01 µM). Besides, the relative viability with AT-7519 (0.03162 µM) worked out at 0.925; with AT-7519 (0.3162 µM) it was 1.04; in the experiment with AT-7519 (1 µM) it was 0.912; in experiment [2] (first compound 0.08 µM), 0.939; in experiment [2] (first compound 0.253 µM), 0.751; in experiment [2] (first compound 0.8 µM) it was 0.77. Moreover, the relative viability in experiment [2] (first compound 2.53 µM) worked out at 0.795; in experiment [2] (first compound 8 µM), 0.681; with AT-7519 + Navitoclax (first compound 0.01 µM) it was 1; in the experiment with AT-7519 + Navitoclax (first compound 0.03162 µM) it was 1.06; with AT-7519 + Navitoclax (first compound 0.3162 µM), 0.951; with AT-7519 + Navitoclax (first compound 1 µM), 0.637.
As for NCI-H23, the relative viability in experiment [1] (0.08 µM) worked out at 0.912; in experiment [1] (0.253 µM), 0.873; in experiment [1] (0.8 µM), 0.932; in experiment [1] (2.53 µM), 1.04; in experiment [1] (8 µM) it was 0.9; with AT-7519 (0.01 µM) it was 0.856. For the same cell line, the relative viability in the experiment with AT-7519 (0.03162 µM) amounted to 0.858; with AT-7519 (0.3162 µM) it was 0.912; in the experiment with AT-7519 (1 µM), 0.616; in experiment [2] (first compound 0.08 µM), 0.39; in experiment [2] (first compound 0.253 µM), 0.319; in experiment [2] (first compound 0.8 µM), 0.392. Moreover, the relative viability in experiment [2] (first compound 2.53 µM) is 0.443; in experiment [2] (first compound 8 µM) it was 0.346; in the experiment with AT-7519 + Navitoclax (first compound 0.01 µM), 0.858; in the experiment with AT-7519 + Navitoclax (first compound 0.03162 µM), 0.622; with AT-7519 + Navitoclax (first compound 0.3162 µM) it was 1.02; with AT-7519 + Navitoclax (first compound 1 µM) it was 0.461.
For the cell line LCLC-97TM1, the relative viability in experiment [1] (0.08 µM) worked out at 1.16; in experiment [1] (0.253 µM) it was 0.873; in experiment [1] (0.8 µM), 0.833; in experiment [1] (2.53 µM) it was 0.926; in experiment [1] (8 µM), 0.999; with AT-7519 (0.01 µM), 0.918. For the same cell line, the relative viability with AT-7519 (0.03162 µM) was found to be 0.892; in the experiment with AT-7519 (0.3162 µM) it was 0.844; with AT-7519 (1 µM), 0.47; in experiment [2] (first compound 0.08 µM), 0.197; in experiment [2] (first compound 0.253 µM), 0.183; in experiment [2] (first compound 0.8 µM), 0.191. The relative viability in experiment [2] (first compound 2.53 µM) was found to be 0.182; in experiment [2] (first compound 8 µM) it was 0.15; in the experiment with AT-7519 + Navitoclax (first compound 0.01 µM), 0.637; with AT-7519 + Navitoclax (first compound 0.03162 µM), 0.31; with AT-7519 + Navitoclax (first compound 0.3162 µM), 0.461; with AT-7519 + Navitoclax (first compound 1 µM), 0.398.
Regarding EPLC-272H, the relative viability in experiment [1] (0.08 µM) amounted to 1.03; in experiment [1] (0.253 µM), 0.901; in experiment [1] (0.8 µM) it was 0.949; in experiment [1] (2.53 µM) it was 0.879; in experiment [1] (8 µM), 0.743; with AT-7519 (0.01 µM), 0.889. The relative viability with AT-7519 (0.03162 µM) was found to be 0.84; with AT-7519 (0.3162 µM), 0.844; with AT-7519 (1 µM), 0.761; in experiment [2] (first compound 0.08 µM) it was 0.358; in experiment [2] (first compound 0.253 µM), 0.276; in experiment [2] (first compound 0.8 µM) it was 0.277. The relative viability in experiment [2] (first compound 2.53 µM) worked out at 0.287; in experiment [2] (first compound 8 µM), 0.282; in the experiment with AT-7519 + Navitoclax (first compound 0.01 µM), 1.13; in the experiment with AT-7519 + Navitoclax (first compound 0.03162 µM), 1.01; with AT-7519 + Navitoclax (first compound 0.3162 µM), 1.31; with AT-7519 + Navitoclax (first compound 1 µM), 0.972.
Turning to NCI-H1915, the relative viability stood at 1.02 in experiment [1] (0.08 µM); 0.968 in experiment [1] (0.253 µM); 0.989 in experiment [1] (0.8 µM); 0.987 in experiment [1] (2.53 µM); 0.966 in experiment [1] (8 µM); 1.03 in the experiment with AT-7519 (0.01 µM). Also, the relative viability with AT-7519 (0.03162 µM) came out at 0.982; with AT-7519 (0.3162 µM) it was 0.881; in the experiment with AT-7519 (1 µM), 0.84; in experiment [2] (first compound 0.08 µM) it was 0.268; in experiment [2] (first compound 0.253 µM), 0.299; in experiment [2] (first compound 0.8 µM) it was 0.288. Further, the relative viability was determined as 0.301 in experiment [2] (first compound 2.53 µM); 0.28 in experiment [2] (first compound 8 µM); 0.817 with AT-7519 + Navitoclax (first compound 0.01 µM); 0.83 in the experiment with AT-7519 + Navitoclax (first compound 0.03162 µM); 0.758 with AT-7519 + Navitoclax (first compound 0.3162 µM); 0.785 with AT-7519 + Navitoclax (first compound 1 µM).

The values above are taken from the supplement of paper PMC10307832.
